Results reported in patent publication US9828351B2, “Enzyme interacting agents” (MONASH UNIVERSITY, priority 2014, dated 2017).

Tested on: MCF7 breast cancer cells
Experiment: Anticancer activity in MCF7 cell lines, MTS assay
Type: cell-based
Settings: Homo sapiens, concentration required to inhibit cell proliferation by 50%, 72 hrs, read-out: MCF-7 IC50
Method: Measurement of Anticancer Activity in MCF7 Cell Lines
MCF7 breast cancer cells were treated with the test compounds and incubated at 37° C., 5% CO2 in air for 72 hrs. The MTS assay was conducted with addition of prepared MTS solution followed by 2 hr incubation, an OD reading and the raw data recorded. The data was managed in tabular form, values adjusted for vehicle control, and the adjusted values graphed as a sigmoidal curve and the EC50 value calculated.

Oc1ccc(Nc2nc(-c3ccc(Cl)cc3)cs2)cc1 [SKI-II, reference compound]
IC50: 10 to 100 µM
